US20230382944A1, “NOVEL COCRYSTALS OF DEXAMETHASONE” (Versitech Limited, priority 2022, published 2023)

Columns and labels:
Assay type in all cases: physicochemical
[1] = Particle size distribution measurement by laser diffraction; details: sieved below 63 μm, n = 3; for Span: (D90-D10)/D50
Procedure: The particle size and size distribution of the powders was determined using laser diffraction equipment, Mastersizer 3000 (Malvern Instruments Ltd, Worcestershire, UK) with Aero S dry powder disperser. […] The particle size distribution was calculated from the light scattering pattern using Mie theory. Particle size at 10% (D10), 50% (D50), 90% (D90) of the volume distribution were calculated automatically using the Mastersizer 3000 software […]. Span was calculated as (D90-D10)/D50. All the samples were measured in triplicate.

[2] = Stability study: drug assay by HPLC and PXRD before and after storage at 25° C./75% RH; details: storage 25° C./75% RH; for % Difference (Day 0-Day 30): Day 0 vs Day 30
Procedure: (§1) The mobile phase consisted of a mixture of methanol and water (65:35, v/v). A 30 μL aliquot of each sample solution was injected onto the column with a flow rate of 1 mL/min.
The samples before and after the storage were collected for PXRD analysis.

[3] = In-vitro drug release study for nasal delivery in pH 5.5 simulated nasal fluid; details: for IDR ratio of DEX cocrystals to DEX: pH 5.5 SNF, estimated by ratio of the slope with sphere assumption; for release in SNF relative to raw DEX (fold faster) / dissolution relative to raw DEX (fold faster): pH 5.5 simulated nasal fluid; for release in SNF relative to raw DEX (fold faster): at 120 min, particle size below 63 μm; for dissolution relative to raw DEX (fold faster): time point not stated
Procedure: as §1
The solution was stirred at 50 rpm on a magnetic stirrer. The dissolution medium and temperature were selected to mimic the physiological condition in the nasal cavity^35, 36. At designated times of 5, 10, 15, 20, 30, 45, 60, 90, and 120 min, 1 mL of the dissolution medium was withdrawn and replaced with an equal volume of fresh medium. The sample solution was filtered through 0.45 μm nylon syringe filters and assayed for drug content by HPLC. The intrinsic dissolution rate (IDR) is determined by the following equation: IDR=(dm/dt)max/A, where (dm/dt)max is the slope of the initial linear region of the cumulative dissolution curve until 10% of drug is dissolved, and A is the specific surface area of the dissolution sample. The following assumptions were made: (i) spherical particles, (ii) constant particle size, and (iii) constant number of particles during the initial phase of the dissolution experiment under sink condition. With the assumptions, the particle size distribution data collected by laser diffractometry is used for the particle surface area (SAparticle) calculation. The total number of particles (n) subject to dissolution is calculated by Vbulk/Vparticle, where Vparticle is the volume of each primary particle, and Vbulk is the volume of compound added to the dissolution medium. The total surface area of all particles added to the dissolution medium is thus calculated through nSAparticle. Finally, the specific surface area (A, m^2/g) defined as the total surface area of a material per unit of mass could be obtained.

[4] = In-vitro aerosol performance evaluation with Next Generation Impactor; details: NGI; for FPF: 90 L/min, particles <5 μm vs recovered dose
Procedure: The spray dryer is equipped with a Buchi B-296 Dehumidifier and B-295 Inert Loop and a spray nozzle tip diameter of 0.7 mm with nitrogen as the atomization gas. The formulations were prepared according to the processing parameters listed in Table 6, above, with a rate of aspirations fixed at 100% (approximately 35 m^3/h), resulting in an outlet temperature of about 44° C.
A thin layer of silicon grease (Slipicone; DC Products, Waverley, VIC, Australia) coated onto the impactor stages minimizes particle bounce. […] Precise amounts of methanol were used for rinsing DEX and RES in all stages. The solutions were subsequently filtered using a 0.45 μm nylon syringe filters and the solutions assayed by HPLC. The recovered dose, fine particle fraction (FPF), mass median aerodynamic diameter (MMAD), and geometric standard deviation (GSD) were calculated. The FPF is the mass fraction of the particles <5 μm with respect to the recovered dose. The recovered dose was defined as the sum of powder mass assayed on all the parts.

[5] = spray-dried 1:1 from methanol, flow rate 90 L/min

SMILES	Volumetric size D10 [1]	Volumetric size D50 [1]	Span [1]	% of DEX Remaining (n = 3) ([2]; Day 0)	% Difference (Day 0-Day 30) [2]	% of DEX Remaining (n = 3) ([2]; Day 7)	% of DEX Remaining (n = 3) ([2]; Day 30)	Volumetric size D90 [1]	IDR ratio of DEX cocrystals to DEX [3]	release in SNF relative to raw DEX (fold faster) [3]	dissolution relative to raw DEX (fold faster) [3]	FPF ([4]; spray-dried 1:1 from methanol)	FPF ([4]; spray-dried 1:1 from methanol, listed as spray dried cocrystal formulation)	GSD [4, 5]	MMAD [4, 5]	MMAD ([4]; spray-dried 1:1 from methanol, flow rate 90 L/min, listed as spray dried cocrystal formulation)	aerosolized powders deposited on stages 3-6 ([4]; spray-dried, aerodynamic diameters 3.61 to 0.76 μm)
C[C@@H]1C[C@H]2[C@@H]3CCC4=CC(=O)C=C[C@]4(C)[C@@]3(F)[C@@H](O)C[C@]2(C)[C@@]1(O)C(=O)CO [DEX, 9-fluoro-11β,17,21-trihydroxy-16α-methylpregna-1,4-diene-3,20-dione, reference compound]	0.93 ± 0.16 μm	1.52 ± 0.50 μm	3.15 ± 0.46	98.77 ± 2.97%	4.27 ± 5.14%	97.23 ± 4.27%	94.50 ± 3.00%	–	–	–	–	–	–	–	–	–	–
CC1CC2C3CCC4=CC(=O)C=CC4(C)C3(F)C(O)CC2(C)C1(O)C(=O)CO.Oc1ccccc1O (centres unmarked) [DEX-CAT]	8.49 ± 1.76 μm	24.87 ± 6.75 μm	5.14 ± 0.28	97.83 ± 2.32%	2.38 ± 5.49%	96.73 ± 4.72%	95.45 ± 3.35%	49.27 ± 6.42 μm	76.86	2.4 fold	3 fold	–	–	–	–	–	–
CC1CC2C3CCC4=CC(=O)C=CC4(C)C3(F)C(O)CC2(C)C1(O)C(=O)CO.Oc1cccc(O)c1 (centres unmarked) [DEX-RES]	4.46 ± 1.93 μm	12.0 ± 0.42 μm	7.69 ± 0.93	99.65 ± 2.58%	4.50 ± 4.07%	97.18 ± 3.87%	95.15 ± 3.17%	35.03 ± 8.92 μm	48.29	2.4 fold	3 fold	35.43 % w/w	35.43±4.97 % w/w	2.30 μm	2.96 μm	2.96±0.49 μm	30.26%
